Measurements as given in paper PMC7407158, “Reprogramming of the Antibacterial Drug Vancomycin Results in Potent Antiviral Agents Devoid of Antibacterial Activity” (Pharmaceuticals, 2020).
≈ marks a conversion by molar mass, not a printed value. Where two headings read alike, the source gives them in different places.

Assays:
[1] = system: S. epidermidis mecA; assay: Broth microdilution MIC, S. epidermidis mecA; type: cell-based; conditions: for MIC: Staphylococcus epidermidis, read-out: In Vitro MIC
Procedure: (§1) Antibacterial tests were carried out by the broth microdilution method on a panel of eight Gram-positive bacterial strains, using vancomycin and teicoplanin as reference compounds.

[2] = in vitro; conditions: dog
[3] = system: E. faecalis 15,376 VanA; assay: Broth microdilution MIC, E. faecalis 15,376 VanA; type: cell-based; conditions: for MIC: Enterococcus faecalis, read-out: In Vitro MIC
Procedure: as §1

[4] = system: Influenza A/H1N1 (A/Ned/378/05); assay: Influenza CPE reduction in MDCK cells, MTS assay, A/H1N1; type: cell-based; conditions: Influenza A virus, H1N1; MDCK cells; A/Ned/378/05; inhibition of virus-induced CPE by MTS assay; read-out: Antiviral EC50 Influenza A/H1N1
[5] = system: Influenza A/H3N2 (A/Victoria/361/11); assay: Influenza CPE reduction in MDCK cells, MTS assay, A/H3N2; type: cell-based; conditions: Influenza A virus, H3N2; MDCK cells; A/Victoria/361/11; inhibition of virus-induced CPE by MTS assay; read-out: Antiviral EC50 Influenza A/H3N2
[6] = system: S. epidermidis ATCC 35984; assay: Broth microdilution MIC, S. epidermidis ATCC 35984; type: cell-based; conditions: for MIC: Staphylococcus epidermidis
Procedure: as §1

[7] = system: Influenza B (B/Ned/537/05); assay: Influenza CPE reduction in MDCK cells, MTS assay, influenza B; type: cell-based; conditions: Influenza B virus, inhibition of virus-induced CPE by MTS assay, read-out: Antiviral EC50 Influenza B
[8] = system: influenza A or B viruses; assay: Anti-influenza virus activity in MDCK cells, MTS assay, overall for the three influenza A or B viruses; type: cell-based, Influenza A and B viruses
[9] = system: B. subtilis ATCC 6633; assay: Broth microdilution MIC, B. subtilis ATCC 6633; type: cell-based; conditions: for MIC: Bacillus subtilis
Procedure: as §1

[10] = system: S. aureus MSSA ATCC 29213; assay: Broth microdilution MIC, S. aureus MSSA ATCC 29213; type: cell-based; conditions: for MIC: Staphylococcus aureus, read-out: In Vitro MIC
Procedure: as §1

[11] = system: E. faecalis ATCC 29212; assay: Broth microdilution MIC, E. faecalis ATCC 29212; type: cell-based; conditions: for MIC: Enterococcus faecalis
Procedure: as §1

[12] = system: S. aureus MRSA ATCC 33591; assay: Broth microdilution MIC, S. aureus MRSA ATCC 33591; type: cell-based; conditions: for MIC: Staphylococcus aureus, read-out: In Vitro MIC
Procedure: as §1

[13] = system: E. faecalis ATCC 51,299 VanB; assay: Broth microdilution MIC, E. faecalis ATCC 51,299 VanB; type: cell-based; conditions: for MIC: Enterococcus faecalis, ATCC51, read-out: In Vitro MIC
Procedure: as §1

[14] = system: MDCK cells; conditions: read-out: CC50 (50% cytotoxic concentration), mock-infected, MTS cell viability assay, three days
[15] = system: herpes simplex virus type 2 (HSV-2, strain G); assay: CPE reduction, MTS assay, HSV-2 in HEL cells; type: cell-based; conditions: Human alphaherpesvirus 2, protection against virus-induced CPE, read-out: Antiviral EC50 HSV-2
[16] = system: thymidine kinase deficient HSV-1/TK- mutant; assay: microbe, parasite or virus in culture; type: cell-based, herpes simplex virus type 1; conditions: Human alphaherpesvirus 1, HEL, read-out: Antiviral EC50 HSV-1/TK-
[17] = in vitro; conditions: human
[18] = in vitro; conditions: African green monkey
[19] = in vitro; conditions: human; remark: listed apart in the source
[20] = system: herpes simplex virus type 1 (HSV-1 strain KOS); assay: CPE reduction, MTS assay, HSV-1 in HEL cells; type: cell-based; conditions: Human alphaherpesvirus 1, protection against virus-induced CPE, read-out: Antiviral EC50 HSV-1
[21] = system: vaccinia virus (strain Lederle); assay: microbe, parasite or virus in culture; type: cell-based; conditions: Orthopoxvirus vaccinia, HEL, read-out: Antiviral EC50 Vaccinia Virus
[22] = system: HeLa, human cervix carcinoma cells; conditions: read-out: CC50 HeLa; mock-infected HeLa cells, MTS assay
[23] = system: A/PR/8/34 virus; type: cell-based, Influenza A virus
[24] = system: HEL, human embryonic lung fibroblast cells; conditions: read-out: CC50 HEL; mock-infected HEL cells, MTS assay
[25] = system: Vero, African Green monkey kidney cells; conditions: read-out: CC50 Vero; mock-infected Vero cells, MTS assay
[26] = ATCC35984, read-out: In Vitro MIC
[27] = ATCC6633, read-out: In Vitro MIC
[28] = ATCC29212, read-out: In Vitro MIC
[29] = S. aureus MSSA ATCC 29213, broth microdilution

## CCCCCCS(=O)(=O)NC1C(=O)NC(CC(N)=O)C(=O)NC2C(=O)NC3C(=O)NC(C(=O)NC(C(=O)O)c4cc(O)cc(O)c4-c4cc3ccc4O)C(O)c3ccc(c(Cl)c3)Oc3cc2cc(c3O)Oc2ccc(cc2Cl)C1O (stereo not drawn) [Compound 8]
[1]
  MIC: 64 µg/mL (≈ 54.9 µM)
[2]
  CC50: 100 µM
[3]
  MIC: 256 µg/mL (≈ 220 µM)
[4]
  EC50: > 100 µM
[5]
  EC50: > 100 µM
[6]; [26]
  MIC: 32 µg/mL (≈ 27.5 µM)
[7]
  EC50: > 100 µM
[8]
  anti-influenza virus activity (in words): inactive
[9]; [27]
  MIC: 32 µg/mL (≈ 27.5 µM)
[10]
  MIC: 256 µg/mL (≈ 220 µM)
[11]; [28]
  MIC: 32 µg/mL (≈ 27.5 µM)
[12]
  MIC: 256 µg/mL (≈ 220 µM)
[13]
  MIC: 128 µg/mL (≈ 110 µM)

## CCCCCCCCCCOCc1cn(CCOCCOCCOCCOCc2cn(CCNC(=O)[C@H]3NC(=O)[C@H]4NC(=O)[C@H](NC(=O)[C@@H]5NC(=O)[C@H](CC(N)=O)NC(=O)[C@H](N)[C@H](O)c6ccc(c(Cl)c6)Oc6cc5cc(c6O)Oc5ccc(cc5Cl)[C@H]4O)c4ccc(O)c(c4)-c4c(O)cc(O)cc43)nn2)nn1 [Compound 11]
[1]
  MIC: 256 µg/mL (≈ 166 µM)
[3]
  MIC: 256 µg/mL (≈ 166 µM)
[6]; [26]
  MIC: 256 µg/mL (≈ 166 µM)
[14]
  CC50: ≥ 20 µM
[9]; [27]
  MIC: 32 µg/mL (≈ 20.8 µM)
[10]
  MIC: 256 µg/mL (≈ 166 µM)
[11]; [28]
  MIC: 128 µg/mL (≈ 83.2 µM)
[12]
  MIC: 256 µg/mL (≈ 166 µM)
[13]
  MIC: 256 µg/mL (≈ 166 µM)

## CCCCSC1=C(SCCCC)C(=O)N(CCOCCOCCOCCOCc2cn(CCNC(=O)[C@H]3NC(=O)[C@H]4NC(=O)[C@H](NC(=O)[C@@H]5NC(=O)[C@H](CC(N)=O)NC(=O)[C@H](N)[C@H](O)c6ccc(c(Cl)c6)Oc6cc5cc(c6O)Oc5ccc(cc5Cl)[C@H]4O)c4ccc(O)c(c4)-c4c(O)cc(O)cc43)nn2)C1=O [Compound 12]
[1]
  MIC: 256 µg/mL (≈ 163 µM)
[3]
  MIC: 256 µg/mL (≈ 163 µM)
[6]; [26]
  MIC: 128 µg/mL (≈ 81.4 µM)
[14]
  CC50: 100 µM
[8]
  anti-influenza virus activity (in words): only slightly active
[9]; [27]
  MIC: 256 µg/mL (≈ 163 µM)
[10]
  MIC: 256 µg/mL (≈ 163 µM)
[11]; [28]
  MIC: 128 µg/mL (≈ 81.4 µM)
[12]
  MIC: 256 µg/mL (≈ 163 µM)
[13]
  MIC: 256 µg/mL (≈ 163 µM)

## teicoplanin [reference compound]
[1]; S. epidermidis mecA, broth microdilution
  In Vitro MIC: 16 µg/mL
[3]; E. faecalis 15,376 VanA, broth microdilution
  In Vitro MIC: 256 µg/mL
[6]; S. epidermidis ATCC 35984, broth microdilution
  In Vitro MIC: 4 µg/mL
[9]; B. subtilis ATCC 6633, broth microdilution
  In Vitro MIC: 0.5 µg/mL
[10]; [29]
  In Vitro MIC: 0.5 µg/mL
[11]; E. faecalis ATCC 29212, broth microdilution
  In Vitro MIC: 1 µg/mL
[12]; S. aureus MRSA ATCC 33591, broth microdilution
  In Vitro MIC: 0.5 µg/mL
[13]; E. faecalis ATCC 51,299 VanB, broth microdilution
  In Vitro MIC: 0.5 µg/mL

## Nc1nc2c(ncn2COCCO)c(=O)[nH]1 [Aciclovir]
[15]
  EC50: 50 nM
[16]
  EC50: 146 µM
[17]
  CC50: > 250 µM
[18]
  CC50: > 250 µM
[19]
  CC50: > 250 µM
[20]
  EC50: 2400 nM
[21]
  EC50: > 250 µM

## Nc1ccn(C[C@@H](CO)OCP(=O)(O)O)c(=O)n1 [Cidofovir]
[15]
  EC50: 1000 nM
[16]
  EC50: 5.8 µM
[17]
  CC50: > 250 µM
[18]
  CC50: > 250 µM
[19]
  CC50: > 250 µM
[20]
  EC50: 2400 nM
[21]
  EC50: 37 µM

## CCCCSC1=C(SCCCC)C(=O)N(CCOCCOCCOCCOCc2cn(C3C(=O)NC(CC(N)=O)C(=O)NC4C(=O)NC5C(=O)NC(C(=O)NC(C(=O)O)c6cc(O)cc(O)c6-c6cc5ccc6O)C(O)c5ccc(c(Cl)c5)Oc5cc4cc(c5O)Oc4ccc(cc4Cl)C3O)nn2)C1=O (stereo not drawn) [Compound 7]
[1]
  MIC: 32 µg/mL (≈ 20.9 µM)
[3]
  MIC: 256 µg/mL (≈ 167 µM)
[22]
  CC50: > 100 µM
[23]
  virus-induced cytopathic effect (CPE) upon microscopic inspection: no virus-induced cytopathic effect (CPE) was observed
[6]; ATCC35984, S. epidermidis ATCC 35984, broth microdilution, read-out: In Vitro MIC
  MIC: 32 µg/mL (≈ 20.9 µM)
[14]
  CC50: 18 µM
[8]
  anti-influenza virus activity (in words): robust activity
[9]; ATCC6633, B. subtilis ATCC 6633, broth microdilution, read-out: In Vitro MIC
  MIC: 32 µg/mL (≈ 20.9 µM)
[10]; [29]
  MIC: 256 µg/mL (≈ 167 µM)
[11]; ATCC29212, E. faecalis ATCC 29212, broth microdilution, read-out: In Vitro MIC
  MIC: 32 µg/mL (≈ 20.9 µM)
[24]
  CC50: > 100 µM
[25]
  CC50: > 100 µM
[12]
  MIC: 256 µg/mL (≈ 167 µM)
[13]
  MIC: 256 µg/mL (≈ 167 µM)

## CCCCCCS(=O)(=O)NCCNC(=O)[C@H]1NC(=O)[C@H]2NC(=O)[C@H](NC(=O)[C@@H]3NC(=O)[C@H](CC(N)=O)NC(=O)[C@H](N)[C@H](O)c4ccc(c(Cl)c4)Oc4cc3cc(c4O)Oc3ccc(cc3Cl)[C@H]2O)c2ccc(O)c(c2)-c2c(O)cc(O)cc21 [Compound 13]
[1]
  MIC: 128 µg/mL (≈ 106 µM)
[2]
  CC50: > 100 µM
[3]
  MIC: 256 µg/mL (≈ 212 µM)
[4]
  EC50: 34 µM
[5]
  EC50: 14 µM
[6]; [26]
  MIC: 128 µg/mL (≈ 106 µM)
[7]
  EC50: > 100 µM
[8]
  anti-influenza virus activity (in words): only slightly active
[9]; [27]
  MIC: 256 µg/mL (≈ 212 µM)
[10]
  MIC: 256 µg/mL (≈ 212 µM)
[11]; [28]
  MIC: 64 µg/mL (≈ 53 µM)
[12]
  MIC: 256 µg/mL (≈ 212 µM)
[13]
  MIC: 128 µg/mL (≈ 106 µM)

## Nc1nc(O)c2ncn(COC(CO)CO)c2n1 [Ganciclovir]
[15]
  EC50: 30 nM
[17]
  CC50: > 100 µM
[18]
  CC50: > 100 µM
[19]
  CC50: > 100 µM
[20]
  EC50: 100 nM
[21]
  EC50: > 100 µM

## CC(=O)N[C@H]1[C@H]([C@H](O)[C@H](O)CO)OC(C(=O)O)=C[C@@H]1N=C(N)N [Zanamivir, reference compound]
[2]
  CC50: > 100 µM
[4]
  EC50: 0.4 µM
[5]
  EC50: 9 µM
[7]
  EC50: 4.5 µM

## CN[C@H](CC(C)C)C(=O)N[C@H]1C(=O)N[C@@H](CC(N)=O)C(=O)N[C@H]2C(=O)N[C@H]3C(=O)N[C@H](C(=O)N[C@H](C(=O)O)c4cc(O)cc(O)c4-c4cc3ccc4O)[C@H](O)c3ccc(c(Cl)c3)Oc3cc2cc(c3O[C@@H]2O[C@H](CO)[C@@H](O)[C@H](O)[C@H]2O[C@H]2C[C@](C)(N)[C@H](O)[C@H](C)O2)Oc2ccc(cc2Cl)[C@H]1O [VAN, vancomycin]
[1]
  MIC: 4 µg/mL (≈ 2.76 µM)
[3]
  MIC: 256 µg/mL (≈ 177 µM)
[6]; [26]
  MIC: 2 µg/mL (≈ 1.38 µM)
[9]; [27]
  MIC: 0.5 µg/mL (≈ 0.345 µM)
[10]
  MIC: 0.5 µg/mL (≈ 0.345 µM)
[11]; [28]
  MIC: 1 µg/mL (≈ 0.69 µM)
[12]
  MIC: 0.5 µg/mL (≈ 0.345 µM)
[13]
  MIC: 128 µg/mL (≈ 88.3 µM)
